From US11236147B2, “Methods and compositions for the inhibition of TRPV4” (CHILDREN'S MEDICAL CENTER CORPORATION, priority 2013, dated 2022)
Entries after “also recorded” stand apart in the source; their conditions may differ.

Columns and labels:
[1] = target: T1, TRPV4 (Homo sapiens, UniProt Q9HBA0); test: Calcium imaging: calcium influx by chemical stimulation (4α-PDD); format: cell-based
T1 construct: Transient increases in intracellular calcium were detected quickly after force application in HUVE cells treated with control siRNA; endogenous in cells; host or cells: HUVE cells (ATCC) treated with control or CD98 siRNA
Procedure: (§1) FIG. 6A depicts a graph of the relative change in cytosolic calcium in response to static stretch (20%, 4 second arrow) in Fluo-4-loaded CE cells treated with control or CD98 siRNA. FIG. 6B depicts a graph of the average relative increases in cytosolic calcium induced by mechanical strain in HUVE cells treated with control or CD98 siRNA. FIG. 6C depicts a graph of the relative change in cytosolic calcium in response to 4α-PDD (10 μM) in Fluo-4-loaded CE cells treated with control or CD98 siRNA. FIG. 6D depicts a graph of the average relative increases in cytosolic calcium induced by chemical strain in HUVE cells treated with control or CD98 siRNA.
(§2) Specific inhibition of mechanical activation of TRPV4 activity. Moreover, TRPV4 is specifically activated by mechanical strain (12). To examine whether CD98 transducse the signal by mechanical stimulation through TRPV4, the calcium influx by mechanical stimulation was investigated. Transient increases in intracellular calcium were detected quickly after force application in HUVE cells treated with control siRNA. […] TRPV4 is also activated by chemical stimulation such as 4α-phorbol 12, 13-didecanoate (4α-PDD).
(§3) Mechanical strain application, measurement of cell orientation, Calcium Imaging were performed as described (Thodeti et al., 2009)

[2] = target: T2, TRPV4 (Rattus norvegicus, UniProt Q9ERZ8); settings: rats; cited from earlier work
T2 construct: host or cells: rats, in vivo

[3] = target: T3, TRPV4 (Mus musculus, UniProt Q9EPK8); settings: mice; cited from earlier work
T3 construct: host or cells: mice, in vivo

[4] = target: T4, TRPV4 (Canis lupus familiaris, UniProt A0A8I3PAV3); settings: dog; cited from earlier work
T4 construct: host or cells: dog, in vivo

[5] = target: T1, TRPV4; settings: human lung-on-a-chip microdevice, IL2-induced; cited from earlier work
[6] = test system: HUVE cells; test: Actin rearrangement / cell orientation after 20% uniaxial cyclic strain; format: cell-based, human
Procedure: (§4) CD98 involves actin rearrangement on mechanotransduction. To confirm that CD98 translates the mechanical signal from β1-integrin to TRPV4 by mediating the binding, it was examined whether CD98 is required for the actin arrangement induced by cyclic strain. To analyze it, HUVE cells were cultured on flexible fibronectin-coated substrates and subjected to 20% uniaxial cyclic strain using a FlexrCell™ Tension Plus system. […] In contrast, this response was abolished by the treatment with CD98 siRNA (FIG. 5).
as §3
as §4, with “To” for “CD98 involves actin rearrangement on mechanotransduction. To”, “FlexrCell” for “FlexrCell™”, “Plus™” for “Plus”

[7] = target: T5, binding between β1-integrin and TRPV4 (Homo sapiens, UniProt P05556+Q9HBA0); test: Immunoprecipitation binding assay in HEK293T cells transfected with HA-linked CD98 high homology domain; format: cell-based; settings: HEK293T cells, 2.5, 5 μg HA-linked CD98 high homology domain vs HA vector, 24 h
T5 construct: endogenous in cells; host or cells: HEK293T cells (ATCC); only the HA-CD98 high homology domain is transfected
Procedure: 2.5, 5 μg HA-linked CD98 high homology domain or 5 μg HA vector was transfected into HEK293T cells, and the binding assay was performed 24 h later. The bottom panel gives the amount of each transgene in total cell lysates of respective transfectants. In the top or the 3rd panel, the lysates were immunoprecipitated with an anti-β1-integrin or TRPV4 antibody, and the amount of TRPV4 or β1-integrin in the precipitates was blotted with each antibodies. The 2nd or the 4th panel gives the amount of β1-integrin or TRPV4 in total cell lysates.
Immunoprecipitation. Cells were extracted in ice-cold TRITON™ buffer (50 mM Tris-HCL, pH 7.4, containing 150 mM NaCl, 1% TRITONX100™, 5 mM EDTA). Cell extracts were centrifuged at 10000 g for 15 min at 4° C. prior to being immunoprecipitated with each antibodies and DYNABEADS™ Magnetic Beads (Invitrogen) at 4° C. Subsequently the beads were isolated by magnet and washed five times with TRITON™ buffer and then were detected by SDS-PAGE and immunoblotting.
As described above, high homology domain of CD98 is important for the binging to either β1-integrin or TRPV4. […] Therefore, CD98 mediates the binding between β1-integrin and TRPV4 at focal adhesion through high homology domain of CD98.

[8] = test system: binding between β1-integrin and TRPV4; test: Immunoprecipitation of TRPV4 / β1-integrin binding in HUVE cells after CD98 siRNA knock down; format: cell-based, human; settings: CD98 siRNA vs control siRNA, co-immunoprecipitation
Excerpt: (§5) The cells were transfected with control or CD98 siRNA. The amount of each component in the total cell lysates is given in the left panel. In the right lanses the cell lysates were immunoprecipitates with rabbit anti-TRPV4 (upper) or mouse anti-β1-integrin antibody (lower).
(§6) CD98 mediates the binding between TRPV4 and β1-integrin at focal adhesion. The question is what the molecular mechanism is by which CD98 mediates the signaling from β1-integrin to TRPV4. CD98 is important for surface expression and clustering of β1-integrin in MCF7 cells (11). Therefore, it was examined whether CD98 mediates the binding between β1-integrin and TRPV4 using siRNA-based knockdown of CD98. […] Thus, CD98 deficiency doesn't affect the formation of focal adhesion.
(§7) siRNA knock down of CD98. RNA interference assay was conducted with human CD98 siRNA duplexes: 5′-[…]-3′ (SEQ ID NO: 21) and 5′-[…]-3′ (SEQ ID NO: 22). Cells were transfected with 50 nM of the siRNA duplexes in Opti-MEM™ (Invitrogen) using silentFect Lipid Reagent for RNAi (BIO-RAD), according to the manufacturer's instructions.
Immunoprecipitation. Cells were extracted in ice-cold TRITON™ buffer (50 mM Tris-HCL, pH 7.4, containing 150 mM NaCl, 1% TRITONX100™, 5 mM EDTA). […] Subsequently the beads were isolated by magnet and washed five times with TRITON™ buffer and then were detected by SDS-PAGE and immunoblotting.

[9] = test system: HUVE cells; test: Scratch wound cell migration assay; format: cell-based, human; settings: monolayer HUVE cells, CD98 siRNA vs control siRNA
Excerpt: as §6
It was next asked whether CD98 serves to link β1-integrin to TRPV4. […] Thus, CD98 is not required for focal adhesion formation or function. […] Although TRPV4 expression was not decreased, TRPV4 couldn't localize at focal adhesions (data not shown).

[10] = test system: HUVE cells; test: Localization of TRPV4, CD98, integrin and vinculin at focal adhesions (TIRF / immunofluorescence); format: cell-based, human; settings: CD98 siRNA
Excerpt: TRPV4 associates with CD98 and β1-integrin at focal adhesion. The terminal 6 amino acid residues at the carboxy end of the β1-integrin cytoplasmic mediate calcium signaling and are required for rapid force induced TRPV4-mediated calcium signaling (10). It was postulated that CD98, which binds to the last 6 carboxy terminal amino acids of β1-integrin, is involved in the TRPV4 activation by β1-integrin using genetically engineered mutant integrin constructs. First, it was confirmed that CD98 binds to integrins through the region of the β1-integrin tail using β1-integrin mutant constructs to transfect HEK293T cells followed by an immunoprecipitation assay. It was also confirmed that TRPV4 also interacts with the same region of β1-integrin using the same β1-integrin mutant constructs (data not shown). To explore the binding between those molecules, whether CD98 and β1-integrin can be co-precipitated from HUVE cell lysates using anti-TRPV4 antibody was determined (FIG. 1A). TRPV4 similarly precipitates with either anti-β1-integrin or anti-CD98 antibody (FIG. 1B). Moreover, it was confirmed that TRPV4 overlapped with CD98 at vinculin positive focal adhesions by Total Internal Reflection Fluorescence (TIRF, data not shown).
siRNA knock down of CD98. RNA interference assay was conducted with human CD98 siRNA duplexes: 5′-[…]-3′ (SEQ ID NO: 21) and 5′-[…]-3′ (SEQ ID NO: 22). […]

[11] = test system: TRPV4; test: Calcium imaging: calcium influx by mechanical stimulation; format: cell-based, human; settings: HUVE cells, CD98 siRNA vs control siRNA, Fluo-4, static stretch 20%
Procedure: as §1, §2, §3

[12] = test system: TRPV4; test: TRPV4 expression in total cell lysates after CD98 knock down; format: cell-based, human; settings: HUVE cells, CD98 siRNA
Procedure: as §5, §7

T1 sequence (Q9HBA0 whole entry): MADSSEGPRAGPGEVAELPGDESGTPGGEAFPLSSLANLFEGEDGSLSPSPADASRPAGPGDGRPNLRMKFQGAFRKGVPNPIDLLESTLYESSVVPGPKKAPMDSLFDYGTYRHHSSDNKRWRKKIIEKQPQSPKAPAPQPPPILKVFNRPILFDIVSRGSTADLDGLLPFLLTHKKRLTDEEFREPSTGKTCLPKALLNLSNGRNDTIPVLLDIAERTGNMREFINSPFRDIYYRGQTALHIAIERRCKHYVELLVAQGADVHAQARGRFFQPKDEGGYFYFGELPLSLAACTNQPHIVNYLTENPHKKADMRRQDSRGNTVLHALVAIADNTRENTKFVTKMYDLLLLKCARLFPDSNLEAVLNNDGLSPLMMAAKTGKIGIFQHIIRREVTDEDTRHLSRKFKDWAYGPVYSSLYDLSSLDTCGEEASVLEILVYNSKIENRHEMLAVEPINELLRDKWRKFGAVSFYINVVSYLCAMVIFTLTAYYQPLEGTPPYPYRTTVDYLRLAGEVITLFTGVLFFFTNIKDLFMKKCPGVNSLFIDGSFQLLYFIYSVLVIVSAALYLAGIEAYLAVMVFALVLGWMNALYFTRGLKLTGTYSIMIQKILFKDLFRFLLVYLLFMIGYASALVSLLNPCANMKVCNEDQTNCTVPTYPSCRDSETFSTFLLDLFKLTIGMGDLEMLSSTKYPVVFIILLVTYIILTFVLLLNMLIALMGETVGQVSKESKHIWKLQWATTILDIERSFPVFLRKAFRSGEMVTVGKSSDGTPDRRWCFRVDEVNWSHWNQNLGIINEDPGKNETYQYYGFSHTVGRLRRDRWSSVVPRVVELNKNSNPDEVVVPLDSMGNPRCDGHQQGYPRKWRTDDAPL
T5 sequence (Q9HBA0 whole entry, the tested form may be a part): as the sequence (Q9HBA0 whole entry) above
T5 sequence (P05556 21-798): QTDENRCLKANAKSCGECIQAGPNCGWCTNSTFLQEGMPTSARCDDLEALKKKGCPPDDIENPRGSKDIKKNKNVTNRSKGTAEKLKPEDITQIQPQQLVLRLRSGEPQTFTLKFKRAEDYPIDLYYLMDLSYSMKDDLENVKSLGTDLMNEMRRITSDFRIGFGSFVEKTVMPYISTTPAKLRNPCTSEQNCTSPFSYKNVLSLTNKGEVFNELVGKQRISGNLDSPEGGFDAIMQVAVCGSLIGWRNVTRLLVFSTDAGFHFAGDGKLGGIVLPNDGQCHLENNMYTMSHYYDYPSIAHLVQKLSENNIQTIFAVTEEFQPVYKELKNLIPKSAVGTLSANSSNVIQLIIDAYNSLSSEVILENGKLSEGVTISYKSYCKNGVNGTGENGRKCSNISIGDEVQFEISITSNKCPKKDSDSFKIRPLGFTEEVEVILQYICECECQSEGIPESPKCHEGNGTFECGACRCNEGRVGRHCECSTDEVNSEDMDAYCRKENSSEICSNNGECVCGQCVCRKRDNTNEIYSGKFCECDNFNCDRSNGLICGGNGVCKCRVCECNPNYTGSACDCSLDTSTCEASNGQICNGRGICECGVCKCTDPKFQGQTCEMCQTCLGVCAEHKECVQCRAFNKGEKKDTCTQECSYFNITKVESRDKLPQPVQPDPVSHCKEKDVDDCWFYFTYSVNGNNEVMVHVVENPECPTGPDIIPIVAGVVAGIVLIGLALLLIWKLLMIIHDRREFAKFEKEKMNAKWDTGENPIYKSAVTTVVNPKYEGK
T2 sequence (Q9ERZ8 whole entry): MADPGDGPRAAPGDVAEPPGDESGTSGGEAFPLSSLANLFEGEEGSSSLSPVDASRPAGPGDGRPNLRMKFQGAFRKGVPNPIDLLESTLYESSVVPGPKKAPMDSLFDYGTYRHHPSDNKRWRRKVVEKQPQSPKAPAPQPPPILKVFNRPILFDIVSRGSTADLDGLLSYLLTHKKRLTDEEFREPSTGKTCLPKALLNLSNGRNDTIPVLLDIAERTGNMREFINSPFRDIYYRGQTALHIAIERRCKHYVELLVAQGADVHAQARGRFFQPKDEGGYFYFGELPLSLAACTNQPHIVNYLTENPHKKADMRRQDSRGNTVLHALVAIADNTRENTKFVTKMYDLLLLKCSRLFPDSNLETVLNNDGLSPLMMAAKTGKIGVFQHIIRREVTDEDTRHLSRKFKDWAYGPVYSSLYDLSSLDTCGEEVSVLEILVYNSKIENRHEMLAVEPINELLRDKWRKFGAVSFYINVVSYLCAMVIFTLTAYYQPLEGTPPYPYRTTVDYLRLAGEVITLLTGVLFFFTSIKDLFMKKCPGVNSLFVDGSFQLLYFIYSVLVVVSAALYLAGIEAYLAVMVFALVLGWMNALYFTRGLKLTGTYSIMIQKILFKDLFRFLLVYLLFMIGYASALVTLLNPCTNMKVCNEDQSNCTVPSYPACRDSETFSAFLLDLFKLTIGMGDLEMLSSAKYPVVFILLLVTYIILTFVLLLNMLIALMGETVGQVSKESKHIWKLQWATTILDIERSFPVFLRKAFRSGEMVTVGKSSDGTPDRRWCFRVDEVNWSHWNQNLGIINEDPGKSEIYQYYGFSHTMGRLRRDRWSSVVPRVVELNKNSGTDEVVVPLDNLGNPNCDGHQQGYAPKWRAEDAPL
T4 sequence (A0A8I3PAV3 1-828): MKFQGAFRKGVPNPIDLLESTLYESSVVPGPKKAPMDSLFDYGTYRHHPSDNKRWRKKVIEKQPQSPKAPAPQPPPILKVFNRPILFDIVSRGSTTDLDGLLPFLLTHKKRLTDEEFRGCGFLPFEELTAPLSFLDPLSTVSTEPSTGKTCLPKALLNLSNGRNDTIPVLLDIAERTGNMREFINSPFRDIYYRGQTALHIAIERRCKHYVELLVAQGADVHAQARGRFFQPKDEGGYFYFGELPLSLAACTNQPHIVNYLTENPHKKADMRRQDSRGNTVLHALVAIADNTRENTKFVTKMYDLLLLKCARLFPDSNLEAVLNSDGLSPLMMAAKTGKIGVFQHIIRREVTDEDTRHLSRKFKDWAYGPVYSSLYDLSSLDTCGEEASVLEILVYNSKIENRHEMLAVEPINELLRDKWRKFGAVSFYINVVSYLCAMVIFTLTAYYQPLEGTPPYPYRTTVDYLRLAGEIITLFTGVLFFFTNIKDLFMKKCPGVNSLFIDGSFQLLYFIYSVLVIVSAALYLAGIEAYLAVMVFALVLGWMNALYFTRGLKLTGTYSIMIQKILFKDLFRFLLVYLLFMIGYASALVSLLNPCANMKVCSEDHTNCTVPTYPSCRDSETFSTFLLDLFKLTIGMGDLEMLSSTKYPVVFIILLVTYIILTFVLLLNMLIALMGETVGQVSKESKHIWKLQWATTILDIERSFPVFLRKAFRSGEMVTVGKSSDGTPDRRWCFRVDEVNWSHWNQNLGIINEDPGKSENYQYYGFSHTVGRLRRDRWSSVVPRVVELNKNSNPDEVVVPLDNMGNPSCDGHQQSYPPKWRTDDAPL
T3 sequence (Q9EPK8 whole entry): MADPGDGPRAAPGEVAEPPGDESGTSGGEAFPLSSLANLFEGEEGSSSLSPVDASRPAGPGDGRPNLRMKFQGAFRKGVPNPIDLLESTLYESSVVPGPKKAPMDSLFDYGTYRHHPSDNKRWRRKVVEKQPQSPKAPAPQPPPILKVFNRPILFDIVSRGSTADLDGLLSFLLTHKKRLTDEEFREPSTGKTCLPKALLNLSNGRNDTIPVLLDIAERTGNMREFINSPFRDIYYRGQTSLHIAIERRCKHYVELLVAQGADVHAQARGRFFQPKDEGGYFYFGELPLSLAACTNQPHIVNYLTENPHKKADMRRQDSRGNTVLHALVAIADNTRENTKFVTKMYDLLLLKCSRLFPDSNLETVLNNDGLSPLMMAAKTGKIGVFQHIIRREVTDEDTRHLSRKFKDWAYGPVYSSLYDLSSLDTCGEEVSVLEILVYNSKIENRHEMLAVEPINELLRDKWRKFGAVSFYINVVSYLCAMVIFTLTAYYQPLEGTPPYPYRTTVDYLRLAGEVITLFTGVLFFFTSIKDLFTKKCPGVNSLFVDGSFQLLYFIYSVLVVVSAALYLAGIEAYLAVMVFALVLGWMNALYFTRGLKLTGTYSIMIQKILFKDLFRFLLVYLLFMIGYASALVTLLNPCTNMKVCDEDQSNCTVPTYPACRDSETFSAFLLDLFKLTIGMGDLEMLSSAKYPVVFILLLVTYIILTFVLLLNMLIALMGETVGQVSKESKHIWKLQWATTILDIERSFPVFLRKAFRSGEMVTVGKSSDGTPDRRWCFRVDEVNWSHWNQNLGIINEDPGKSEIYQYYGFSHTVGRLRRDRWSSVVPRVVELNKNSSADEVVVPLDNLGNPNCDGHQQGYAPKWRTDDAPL

CCCCCCCCCC(=O)O[C@@H]1[C@@H](C)[C@@]2(O)[C@@H](C=C(CO)C[C@@]3(O)C(=O)C(C)=C[C@@H]23)[C@@H]2C(C)(C)[C@]12OC(=O)CCCCCCCCC [4α-PDD, 4α-phorbol 12, 13-didecanoate]
intracellular calcium in response to 4α-PDD ([1]; HUVE cells treated with either control or CD98 siRNA, 4α-PDD 10 μM): rapid increase in intracellular calcium

O=C(NC1(c2ccccc2)CC1)c1c(CN2CCC(N3CCCCC3)CC2)c(-c2cccc(C(F)(F)F)c2)nc2cc(Br)ccc12 [GSK2193874]
cardiogenic pulmonary edema [2]: prevents cardiogenic pulmonary edema
cardiogenic pulmonary edema [3]: prevents cardiogenic pulmonary edema
cardiogenic pulmonary edema [4]: prevents cardiogenic pulmonary edema
pulmonary vascular leakage and lung edema development [5]: prevent pulmonary vascular leakage and lung edema development

high homology domain of CD98: domain of CD98 having the sequence of SEQ ID NO: 1; N-terminal region highly conserved from Drosophila to mammals (KFTGLSKEELLKVAGSPGWVRTRWALLLLFWLGWLGMLAGAVVIIVRAPRC)
actin rearrangements after mechanical strain ([6]; HUVE cells overexpressing high homology domain of CD98 vs vector): didn't show actin rearrangements
β1-integrin binding to TRPV4 [7]: decreased
β1-integrin binding to TRPV4 ([7]; listed as high homology domain): inhibited

CD98 siRNA: human CD98 siRNA duplexes: 5′-GAAUGGUCUGGUGAAGAUC-3′ (SEQ ID NO: 21) and 5′-GAUCUUCACCAGACCAUUC-3′ (SEQ ID NO: 22) (listed as RNA, chemistry not given here; listed as Homo sapiens)
association (binding) of TRPV4 and β1-integrin [8]: can't bind to β1-integrin; also recorded: decreased association of TRPV4 and β1-integrin; also recorded: greatly reduced the amount of the binding between β1-integrin and TRPV4
cell migration in scratch wound assay [9]: normally restored; also recorded: did not interfere with cell migration
calcium influx of TRPV4 activation by chemical treatment ([1]; HUVE cells, CD98 siRNA vs control siRNA): not inhibited; also recorded: not by chemical activators
TRPV4 localization at focal adhesions [10]: can't localize at focal adhesion; also recorded: loss of TRPV4 from focal adhesions; also recorded: prevented; also recorded: greatly reduced the amount of both CD98 and TRPV4 within focal adhesions
recruitment of integrins or vinculin to focal adhesions [10]: no effect
transient increase in intracellular calcium after force application (mechanical activation of TRPV4) [11]: inhibited; also recorded: didn't show this response; also recorded: inhibits calcium influx
stress fiber realignment (actin rearrangement) induced by cyclic strain ([6]; HUVE cells, CD98 siRNA vs control siRNA, 20% uniaxial cyclic strain, 2 hours): inhibited; also recorded: abolished
TRPV4 expression [12]: not decreased
